Data set [1] has as its system HIV-1(NL4-3). Type of data set: cell-based. The note with it: for Infectivity (percentage of GFP+ cells): 100 μM, pretreated 1 h, HIV-1(NL4-3) 3 h, washed, viable cells only, paired DMSO controls 1.76-3.37%; for X4 HIV infection in screening: at nontoxic dosages, Fig. 1C and 2.
A short description of data set [2]: in vitro. Conditions: human.
For data set [3] the following is noted: oral gavage 20 mg/kg daily, 7 days.
The target in data set [4] is LIMK1 (Homo sapiens, UniProt P53667). Nature of the data set: LIMK1 biochemical assay, 10-dose IC50. The arrangement: purified from insect cells; His; purchased Reaction Biology Corporation, Malvern, PA; host or cells: insect cells (coexpressed with ROCK1). Conditions: purified LIMK1; 10 μM ATP, 1 μM cofilin; ≥2 in vitro kinase assays; read-out: LIMK1 Biochemical Inhibition IC50. From the text:
We selected R10015 from the potential LIMK inhibitors for further detailed mechanistic studies. The synthesis, purification, and biochemical characterization of R10015 are described in Materials and Methods below and shown in Fig. 3. We performed a cell-free assay to measure R10015 inhibition of the LIM domain kinase using purified human LIMK1 and its substrate, cofilin. […] We also performed profiling of R10015 against a panel of 62 kinases (Table 2).
Biochemical LIMK1 assays for all inhibitors were carried out by Reaction Biology Corporation, Malvern, PA, and followed the protocols described on its website. […] Reactions were carried out at 10 μM ATP, 1 μM substrate (cofilin), and 50 nM LIMK1 (final concentrations). […] The reagents were as follows: base reaction buffer, 20 mM HEPES (pH 7.5), 10 mM MgCl2, 1 mM EGTA, 0.02% Brij 35, 0.02 mg/ml bovine serum albumin (BSA), 0.1 mM Na3VO4, 2 mM dithiothreitol (DTT), 1% DMSO. No additional cofactors were added to the reaction mixture. The reaction procedures were as follows. (i) The indicated substrate was prepared in freshly made base reaction buffer. (ii) Any required cofactors were delivered to the substrate solution described above. (iii) The indicated kinase was delivered into the substrate solution and gently mixed. (iv) The compounds in DMSO were delivered into the kinase reaction mixture. (v) [^33P]ATP (final specific activity, 0.01 μCi/μl) was delivered into the reaction mixture to initiate the reaction. […] (viii) The filters were washed extensively in 0.1% phosphoric acid.

Sequence of LIMK1 (P53667 285-638): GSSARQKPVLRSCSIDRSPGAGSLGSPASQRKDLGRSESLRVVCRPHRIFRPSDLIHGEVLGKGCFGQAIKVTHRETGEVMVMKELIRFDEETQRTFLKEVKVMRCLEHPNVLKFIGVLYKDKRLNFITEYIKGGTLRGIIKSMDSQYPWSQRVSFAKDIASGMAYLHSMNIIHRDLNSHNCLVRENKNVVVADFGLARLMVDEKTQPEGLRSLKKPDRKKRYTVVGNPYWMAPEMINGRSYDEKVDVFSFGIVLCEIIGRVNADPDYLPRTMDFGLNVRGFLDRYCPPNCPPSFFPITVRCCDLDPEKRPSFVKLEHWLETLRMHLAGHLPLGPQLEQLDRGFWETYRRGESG

As for `Cc1c[nH]c2ncnc(-c3ccc(NC(=O)N(CCO)c4ccccc4)cc3)c12` [Compound R7826], in data set [1] (48 h), the “Infectivity (percentage of GFP+ cells)” value was determined as 1.02%. Moreover, the “X4 HIV infection in screening” value in data set [1] is recorded as “blocked”. The compound further had a viability at 100 µM in data set [2] of 96.2%. Moreover, the “body weight over a week compared to PBS control” value in data set [3] is reported as “gained weight”.
Consider `Cc1c[nH]c2ncnc(N3CCC(c4nc5cc(C#N)ccc5[nH]4)CC3)c12` [Compound R8212], for which the “Infectivity (percentage of GFP+ cells)” value in data set [1] (48 h) is listed as 2.22%. In addition, the “X4 HIV infection in screening” value in data set [1] is on record as “blocked”. In data set [4], the IC50 amounted to 44 ± 6 nM. In data set [2], this compound had a viability at 100 µM of 93.3%.
The corresponding values for `CC1(c2nc3ccc(C(=O)NC4CCC4)cc3[nH]2)CCN(c2ncnc3[nH]ccc23)CC1` [Compound R8482] are 1.10%, “blocked”, 41 ± 4 nM and 93.4%.
The corresponding values for `Cc1c[nH]c2ncnc(-c3ccc(-c4nc5ccc(C(=O)NC6CCCC6)cc5[nH]4)c(F)c3)c12` [Compound R8584] are 0.65%, “blocked”, 50 ± 7 nM and 93.7%.
Taken in the same sequence, the figures for `CC(C)NC(=O)c1ccc2[nH]c(N3CCN(c4ncnc5[nH]cc(Cl)c45)C[C@@H]3C)nc2c1` [Compound R10543] were 0.75%, “blocked”, 5 ± 2 nM and 90.1%.
For the compound `CCOC(=O)c1ccc2nc(N3CCN(c4ncnc5[nH]cc(Cl)c45)[C@@H](C)C3)[nH]c2c1` [Compound R10659], in data set [1] (48 h), the “Infectivity (percentage of GFP+ cells)” value was 1.30%. Further, in data set [1], the “X4 HIV infection in screening” value was “blocked”. The viability at 100 µM in data set [2] was found to be 89.8%.
With `Cc1cc(C#N)cc(C)c1Oc1nc(Nc2ccc(C#N)cc2)nc(N)c1Br` [Etravirine, etravirine, reference compound], the “HIV-dependent GFP expression (GFP+ cells)” value in data set [1] (etravirine 100 nM, HIV(NL4-3), 48 h, Fig. 1B) was 0.01%.

These data come from publication PMC5469273, “Discovery of Novel Small-Molecule Inhibitors of LIM Domain Kinase for Inhibiting HIV-1” (Journal of Virology, 2017).
